Results on five molecules are retold here after patent publication US20260022143A1, “Cyclic Peptide Inhibitors of IL-23” (JANSSEN PHARMACEUTICA NV, priority 2022, published 2026).

Molecules are shown by their SMILES. Starred links: 1 amine or outer side, 2 acyl side, 3 side chain; linkers in the order of their positions; H or OH if unused. Positions of bridges follow the written chain, without caps; N, C: chain ends. Non-standard residues stand in square brackets, D forms with d. Residues, ends and D or L forms follow the SMILES beside them. Groups on a side chain read outwards from the residue. ξ: configuration not given here. *: point of attachment. Me3N+(CH2)2O(CH2)2O(CH2)2CO = C[N+](C)(C)CCOCCOCCC(=O)*; CH2CH2OCH2CH2OCH2CH2NMe3+ = C[N+](C)(C)CCOCCOCC*; Trp(7-Me) = Cc1cccc2c(C[C@H](N)C(=O)O)c[nH]c12; Pentanoyl(5-guanidino) = NC(N)=NCCCCC(=O)*; γGlu = O=C(O)[C@H](CCC(=O)[*:2])N[*:1]; 2Nal = N[C@@H](Cc1ccc2ccccc2c1)C(=O)O; AEF = NCCOc1ccc(C[C@H](N)C(=O)O)cc1; 3Pal = N[C@@H](Cc1cccnc1)C(=O)O; Lys(Me) = CNCCCC[C@H](N)C(=O)O; NMeK = CN[C@@H](CCCCN)C(=O)O; Pen = CC(C)(S)[C@H](N)C(=O)O; Lauroyl = CCCCCCCCCCCC(=O)*; ξLys(Me) = CNCCCCC(N)C(=O)O; Thp = NC1(C(=O)O)CCOCC1; X3 = C[N+](C)(C)CCCCC*; AEEA = NCCOCCOCC(=O)O; Sar = CNCC(=O)O

This test concerns the target T1, IL-23R (Homo sapiens, UniProt Q5VWK5).
T1 construct: host or cells: HEK293
T1 sequence (Q5VWK5 24-629): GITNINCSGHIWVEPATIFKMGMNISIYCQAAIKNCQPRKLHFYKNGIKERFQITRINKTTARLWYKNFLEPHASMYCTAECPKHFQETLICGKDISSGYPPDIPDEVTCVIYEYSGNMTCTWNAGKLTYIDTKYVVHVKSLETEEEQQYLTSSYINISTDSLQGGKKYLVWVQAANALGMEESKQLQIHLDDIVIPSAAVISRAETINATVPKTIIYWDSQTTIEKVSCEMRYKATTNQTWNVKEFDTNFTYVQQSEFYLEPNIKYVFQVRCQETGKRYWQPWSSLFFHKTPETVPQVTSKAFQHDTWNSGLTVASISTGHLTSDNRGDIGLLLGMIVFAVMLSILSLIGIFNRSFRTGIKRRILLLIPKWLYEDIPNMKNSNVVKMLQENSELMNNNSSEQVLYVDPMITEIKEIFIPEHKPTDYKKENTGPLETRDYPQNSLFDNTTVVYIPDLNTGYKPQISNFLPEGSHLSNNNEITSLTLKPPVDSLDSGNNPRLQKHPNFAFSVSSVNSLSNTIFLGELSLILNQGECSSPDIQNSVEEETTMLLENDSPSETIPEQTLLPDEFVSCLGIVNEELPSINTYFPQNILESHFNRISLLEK
Description: IL23R Reporter Assay. It is filed as cell-based. The conditions noted are these: HEK293 cells containing IL-23R, IL-12RP1 and STAT-inducible firefly luciferase reporter; 10 ng/mL IL-23 (EC90); 5 h at 37° C.; read-out: IL23R Reporter Assay. In general terms: In a reporter assay the amount or activity of a reporter protein is the signal.
In the case of `CC(=O)N(C)CCCC[C@@H]1NC(=O)[C@H](Cc2c[nH]c3c(C)cccc23)NC(=O)[C@H]([C@@H](C)O)NC(=O)[C@H](CC(=O)N(C)C)NC(=O)[C@@H](NC(=O)CCOCCOCC[N+](C)(C)C)C(C)(C)SSC(C)(C)[C@@H](C(=O)N[C@@H](Cc2ccc(OCCNC(=O)CCOCCOCC[N+](C)(C)C)cc2)C(=O)N[C@@H](Cc2ccc3ccccc3c2)C(=O)NC2(C(=O)N[C@@H](CCCCN(C)C(C)=O)C(=O)N[C@@H](CC(N)=O)C(=O)N[C@@H](Cc3cccnc3)C(=O)N(C)CC(=O)N(C)C)CCOCC2)NC1=O` [compound 571, cPEG3aCO-Pen(3)-N(N(Me)2)-T-7MeW-K(NMeAc)-Pen(3)-AEF(cPEG3a)-2Nal-THP-K(NMeAc)-N-3Pya-Sar-CONMe2] ({Me3N+(CH2)2O(CH2)2O(CH2)2CO}-[Pen]D(NMe2)T[Trp(7-Me)][Lys(Me)](Ac)[Pen][AEF](Me3N+(CH2)2O(CH2)2O(CH2)2CO)[2Nal][Thp][Lys(Me)](Ac)N[3Pal][Sar]-NMe2; disulfide 1-6), the IC50 amounted to 3.5 nM.
The figure for `CC(=O)N(C)CCCCC(NC(=O)C1(NC(=O)[C@H](Cc2ccc3ccccc3c2)NC(=O)[C@H](Cc2ccc(OCCOCCOCC[N+](C)(C)C)cc2)NC(=O)[C@H]2NC(=O)[C@H](CCCCN(C)C(C)=O)NC(=O)[C@H](Cc3c[nH]c4c(C)cccc34)NC(=O)[C@H]([C@@H](C)O)NC(=O)[C@H](CC(=O)N(C)C)NC(=O)[C@@H](NC(=O)CCOCCOCC[N+](C)(C)C)C(C)(C)SSC2(C)C)CCOCC1)C(=O)N[C@@H](CC(N)=O)C(=O)N[C@@H](C)C(=O)N(C)CC(=O)N(C)C` (some centres unmarked) [compound 574, cPEG3aCO-Pen(3)-N(N(Me)2)-T-7MeW-K(NMeAc)-Pen(3)-APEG3F-2Nal-THP-K(NMeAc)-N-A-Sar-CON(Me)2] ({Me3N+(CH2)2O(CH2)2O(CH2)2CO}-[Pen]D(NMe2)T[Trp(7-Me)][Lys(Me)](Ac)[Pen]Y(CH2CH2OCH2CH2OCH2CH2NMe3+)[2Nal][Thp][ξLys(Me)](Ac)NA[Sar]-NMe2; disulfide 1-6) is 1390 nM.
The figure for `CC(=O)N(C)CCCC[C@@H]1NC(=O)[C@H](Cc2c[nH]c3c(C)cccc23)NC(=O)[C@H]([C@@H](C)O)NC(=O)[C@H](CC(=O)N(C)C)NC(=O)[C@@H](NC(=O)CCCCNC(=N)N)C(C)(C)SSC(C)(C)[C@@H](C(=O)N[C@@H](Cc2ccc(OCCCCC[N+](C)(C)C)cc2)C(=O)N[C@@H](Cc2ccc3ccccc3c2)C(=O)NC2(C(=O)N[C@@H](CCCCN(C)C(C)=O)C(=O)N[C@@H](CC(N)=O)C(=O)N[C@@H](Cc3cccnc3)C(=O)N(C)CC(=O)N(C)C)CCOCC2)NC1=O` [compound 403, 4cpgCO-Pen(3)-N(N(Me)2)-T-7MeW-K(NMeAc)-Pen(3)-TMAPF-2Nal-THP-K(NMeAc)-N-3Pya-Sar-CON(Me)2] ({Pentanoyl(5-guanidino)}-[Pen]D(NMe2)T[Trp(7-Me)][Lys(Me)](Ac)[Pen]Y(X3)[2Nal][Thp][Lys(Me)](Ac)N[3Pal][Sar]-NMe2; disulfide 1-6) is 4.5 nM; for `CC(=O)NCCCC[C@@H]1NC(=O)[C@H](Cc2c[nH]c3c(-c4cccc(NC(C)=O)c4)cccc23)NC(=O)[C@H]([C@@H](C)O)NC(=O)[C@H](CC(N)=O)NC(=O)[C@@H](NC(=O)CCOCCOCC[N+](C)(C)C)C(C)(C)SSC(C)(C)[C@@H](C(=O)N[C@@H](Cc2ccc(OCCNC(=N)N)cc2)C(=O)N[C@@H](Cc2ccc3ccccc3c2)C(=O)NC2(C(=O)N[C@@H](CCCCN(C)C(C)=O)C(=O)N[C@@H](CC(N)=O)C(=O)N[C@@H](Cc3cncc(C)c3)C(=O)N(C)CC(N)=O)CCOCC2)NC1=O` [compound 481, cPEG3aCO-Pen(3)-N-T-7(3NAcPh)W-K(Ac)-Pen(3)-AEF(G)-2Nal-THP-K(NMeAc)-N-5MePyridinAla-Sar-CONH2] it is 3.5 nM; for `CCCCCCCCCCCC(=O)N[C@@H](CCC(=O)NCCOCCOCC(=O)NCCOCCOCC(=O)NCCOCCOCC(=O)NCCCC[C@H](NC(=O)C1(NC(=O)[C@H](Cc2ccc3ccccc3c2)NC(=O)[C@H](Cc2ccc(OCCCCC[N+](C)(C)C)cc2)NC(=O)[C@H]2NC(=O)[C@H](CCCCNC(C)=O)NC(=O)[C@H](Cc3c[nH]c4c(C)cccc34)NC(=O)[C@H]([C@@H](C)O)NC(=O)[C@H](CC(=O)N(C)C)NC(=O)[C@@H](NC(=O)CCOCCOCC[N+](C)(C)C)C(C)(C)SSC2(C)C)CCOCC1)C(=O)N[C@@H](CC(N)=O)C(=O)N[C@@H](Cc1cccnc1)C(=O)N(C)[C@@H](CCCCNC(=O)COCCOCCNC(=O)COCCOCCNC(=O)COCCOCCNC(=O)CC[C@H](NC(=O)CCCCCCCCCCC)C(=O)O)C(N)=O)C(=O)O` [compound 373, cPEG3aCO-Pen(3)-N(N(Me)2)-T-7MeW-K(Ac)-Pen(3)-TMAPF-2Nal-THP-K(PEG2PEG2PEG2gEC12))-N-3Pya-NMeK(PEG2PEG2PEG2gEC12)-CONH2] ({Me3N+(CH2)2O(CH2)2O(CH2)2CO}-[Pen]D(NMe2)T[Trp(7-Me)]K(Ac)[Pen]Y(X3)[2Nal][Thp]K([AEEA-AEEA-AEEA-γGlu-Lauroyl])N[3Pal][NMeK]([AEEA-AEEA-AEEA-γGlu-Lauroyl])-NH2; disulfide 1-6) it is 87 nM.
